Experimental findings from US6380165B1, “Immunological advanced glycation endproduct crosslink” (The Picower Institute for Medical Research, priority 1997, dated 2002) are described below.

Where a SMILES comes first, the peptide text is derived from it. The star is where a group is joined. Cbz = O=C(OCc1ccccc1)*

For the first data set, the system named is polyclonal anti-AGE antibody “RU”. Briefly: anti-AGE antibody-based competitive ELISA to measure AGE content (AGE-BSA as absorbed antigen). It is filed as binding, rabbit. To be noted: FIG. 1. The source says: For comparison purposes, the reactivity of FFI, CML, AFGP, pentosidine and cyclic pentosidine, and ligands with related epitope structure, such as N^α-Z-arg-lys, N^α-Z-arg-lys-AP, an imidazolium adduct, a pyrimidinium adduct, histidine, and lys-his, were studied. ELISA competition curves for the polyclonal anti-AGE antibody “RU” followed the methods described by Makita et al. (J. Biol. Chem. 267:1992, 1992). Assays employed glucose-derived, AGE-BSA as the absorbed antigen. FFI: 4-furanyl-2-furoyl-1H-imidazole (Ponger et al,. Proc. Natl. Acad Sci. U.S.A. 81:2684, 1984), CML: carboxy-methyllysine (Ahmed et al., J. Biol. Chem. 261:4889, 1986), AFGP: 1-alkyl-2-formyl-3,4-diglycosylpyrrole (Farmar et al., J. Org. Chem. 53:2346, 1988), PY: pyrraline (Njoroge et al., Carbohydrate Res. 167:211, 1987), P: pentosidine (Sell and Monnier, J. Biol. Chem. 264:21597, 1989), CP: cyclic pentosidine (CP) (Al-Abed et al., Bioorg. Med. Chem. Lett. 5:2929, 1995), AL: N^α-Z-arg-lys (AL), ALAP: N^α-Z-arg-lys-AP, H: histidine, LH: lys-his, PA: pyrimidinium adduct (Al-Abed et al., Bioorg. Med. Chem. Lett. 6:1577, 1996), and IA: imldazolium adduct (Brinkmann et al., J. Chem. Soc. Perkin Trans.
This example illustrates the discovery and isolation of the AGE of formula I. The dipeptide N^α-Z-arg-lys was selected as a target, because a close association of the arginine and lysine residues provides a significant proximity effect that promotes crosslink formation. Moreover, a synthetic strategy employing an arg-lys dipeptide was used successfully in the past to isolate a cyclic pentosidine in a high yield (Beisswenger et al., Diabetes 44:824, 1995). N^α-Z-arg-lys (13 mmoles) was incubated together with 10 equivalents of glucose in 0.2 M phosphate buffer (pH 7.4) for five weeks at 37° C. At least 25 distinct reaction products were identified upon fractionation of this mixture by reverse-phase HPLC. Each fraction was isolated, concentrated, and analyzed for its reactivity with anti-AGE antibody by ELISA (Makita et al., J. Biol Chem. 267:1992, 1992). Briefly, HPLC fractions and purified compounds were analyzed by an AGE-specific ELISA following methods described previously (Makita et al., J. Biol. Chem. 267:1992, 1992). This ELISA employed a polyclonal anti-AGE antibody raised by hyperimmunization against a heavily AGE-crosslinked preparation of ribonuclease. Total IgG was prepared by protein-G affinity chromatography and the ribonuclease backbone specificities removed by immunoabsorption. For assaying AGE immunoreactivity, 96-well round bottom microtitre plates (EIA/RIA plate, Costar, Cambridge, Mass.) first were coated with AGE-BSA (3 mg/ml, dissolved in 0.1 M sodium bicarbonate, pH 9.6) by incubation overnight at 4° C. After washing, the unbound sites were blocked with SuperBlock™ following the manufacturer's recommendations (Pierce, Rockford, Ill.). After washing, dilutions of test antigen, together with anti-AGE IgG, were added and the plates incubated at room temperature for 1 hr. The plates then were washed again and incubated with a secondary antibody (alkaline phosphatase-conjugated anti-rabbit IgG) at 37° C. for 1 hr. The unbound antibodies were removed by extensive washing and bound antibodies were detected by incubation with-nitrophenyl phosphate (pNPP) substrate for 30-60 min, and recording the optical density at 405 nm by an ELISA reader (EL309, Bio-Tek Instruments Inc., Burlington, Vt.). Results were expressed as B/B0, calculated as [experimental OD—background OD (i.e. no antibody)]/[total OD (i.e. no competitor)—background OD].
On the technique in general: An ELISA detects its analyte on a solid surface through an enzyme-linked reagent.
For the compound `NCCCC[C@H](N)C(=O)N[C@@H](Cc1cnc[nH]1)C(=O)O` [LH, lys-his], the “crossreactivity / reactivity with the RU anti-AGE antibody” value (“crossreactivity / reactivity” for short) is reported as “no detectable crossreactivity”.

As to 4-furanyl-2-furoyl-1H-imidazole [FFI], the “crossreactivity / reactivity” value was “no detectable crossreactivity”. For the compound N^α-Z-arg-lys-AP [ALAP], the “crossreactivity / reactivity” value is on record as “no detectable crossreactivity”. As to “1-alkyl-2-formyl-3,4-diglycosylpyrrole [AFGP]”, the “crossreactivity / reactivity” value is listed as “no detectable crossreactivity”. On the same count and under the same terms, under `N[C@@H](Cc1c[nH]cn1)C(=O)O` [H, histidine] stands “no detectable crossreactivity”; under `N=C(N)NCCC[C@H](NC(=O)OCc1ccccc1)C(=O)N[C@@H](CCCCN)C(=O)O` [AL, N^α-Z-arg-lys] (Cbz-Arg-Lys-OH), “no detectable crossreactivity”; under `N[C@@H](CCCCn1c(C=O)ccc1CO)C(=O)O` [PY, pyrraline], “no detectable crossreactivity”. With cyclic pentosidine [CP], the “crossreactivity / reactivity” value is listed as “no detectable crossreactivity”. Still for that read-out and setting: under pentosidine stands “no detectable crossreactivity”.

Test system in the next data set: not listed separately
Kind of data set: acid lability of the isolated crosslink.
Conditions: not given
The class given is physicochemical.
`O=C(NC1CCCNC2=NC(=CNCCCCC(C(=O)O)NC1=O)C(CC(O)CO)=N2)OCc1ccccc1` (stereo not drawn) [ALI, Arg-Lys-Imidazole]: the “acid stability of the crosslink” value was “acid-labile”.

For a further data set, the system named is AGE formation. Briefly: formation of the ALI crosslink from glucose and Nα-Z-arg-lys, inhibition of forming.
Conditions: not given
The source says:
This example illustrates a proposed mechanism of the AGE formation (FIG. 2). First, dehydration of the lysine-derived AP (which has been determined to form in 18% yield under these reaction conditions) gives an obligate, AP-dione reactive intermediate. Reversible addition of the guanidine moiety to the dicarbonyl yields the 2-amino-4,5-dihydroxyimidazole adduct, which then undergoes dehydration to deliver the stable cyclic ALI.
As to `N=C(N)NN` [aminoguanidine], the “inhibition of crosslink (ALI) formation” value was “inhibited from forming”.
